Common to all, as to format: in vivo, human
One experiment has as its system ovarian cancer. The experiment is described as follows: Best tumor response in patients with ovarian cancer. The following applies: patients with OC, 8/44. The source says:
(§1) The term “efficacy” as used herein refers to an inhibitory effect on tumor growth, which can be manifested as slowing, retarding, arresting or even reversing (i.e., shrinking) growth of the tumor. In some embodiments, the effect on tumor growth is associated with suppression by a PARP inhibitory compound, for example Veliparib. In clinical sittings, efficacy can be measured by one skilled in the art and by a number of efficacy endpoints, for example, overall survival (OS), progression free survival (PPS), time to progression (TTP), time to treatment failure (TTF), event-free survival (EFS), time to next treatment (TINT), objective response rate (ORR), duration of response (DoR), and/or response rate, for example, partial response (PR) or complete response (CR). The term “partial response” or “PR” as used herein, means a partial response of the target lesion, indicated by at least a 30% decrease in the sum of diameters of target lesions, taking as reference the baseline sum diameters.
(§2) Eligible patients had metastatic BRCA+ cancer, BRCA± high-grade serious ovarian/primary peritoneal/fallopian tube cancer (OC), (part 1/2), or BRCA+ breast cancer (BC), or OC (part 3).
(§3) Best tumor responses were compared between patients from Part 1 who received IR-v as the primary treatment and patients in Part 2 and Part 3 of the study who received ER-v formulation C. […]

Another experiment concerns breast cancer. The experiment is described as follows: Best tumor response in patients with breast cancer. The note with it: patients with BC, 6/16.
From the text: as §1, §2, §3

In experiment [1] the test system is tumor growth (sum of the longest diameter for all target lesions). The experiment is described as follows: Exposure-response tumor growth inhibition model (NONMEM nonlinear mixed-effects). The note with it: final tumor growth inhibition model. The source says: Fifty-four subjects (39 with ovarian, fallopian tube, or peritoneal cancers, 14 with breast cancer, and 1 with prostate cancer) were included in an exposure-response analysis using nonlinear mixed-effects modeling approach with NONMEM software (version 7.3.0) (Table 6).
Veliparib pharmacokinetics (PK) was described with a one-compartment model with first-order elimination process (kel) (FIG. 4). For the IR formulation, absorption was modeled as a first-order process (ka) (Equations 1a and 1b). For the ER formulation, the absorption was modeled as a zero-order process (Dose/Duration) (Equations 2a and 2b).
Subsequently, the relationship between veliparib PK exposure and longitudinal tumor growth inhibition was analyzed. The time course of tumor growth inhibition was modeled using an exponential tumor growth model represented by a single tumor compartment linked to veliparib central compartment with linear inhibitory effect of veliparib on tumor growth (see FIG. 4 and Equation 3). The possible measurement error at the baseline was accounted for by allowing individual deviations from the observed baseline as between-subject variability. Inter-individual variability was incorporated on the slope and estimated baseline using exponential function and the residual variability was characterized using additive error. […]

Each structure is given as a SMILES string.

For `C[C@]1(c2nc3c(C(N)=O)cccc3[nH]2)CCCN1` [veliparib, 2-[(2R)-2-methylpyrrolidin-2-yl]-1H-benzimidazole-4-carboxamide], the “Confirmed and unconfirmed responses” value with ovarian cancer is reported as 18%; in the experiment on breast cancer, 38%. In addition, the “BRCA effect on Slope (i.e., ratio of Slope for BRCA-mut to Slope for BRCA-wt), Population Estimate” value in experiment [1] was 1.72.

(Values after patent publication US20190029951A1, “EXTENDED RELEASE FORMULATIONS OF VELIPARIB FOR THE TREATMENT OF CANCER” (AbbVie Inc., priority 2016, published 2019).)
